Laboratory results taken from US8404665B2, “In vivo use of glutathione S-transferase activated nitric oxide donors” (University of Utah Research Foundation, priority 2002, dated 2013).

Columns and labels:
[1] = tested on: HL-60 cells; assay: HL-60 cell differentiation (Wright and non-specific esterase staining); type: cell-based, human; settings: 0.5 uM, 3-5 days
Method: Cell Growth, Differentiation and Apoptosis Assays. The number of viable cells was determined using the MTT assay according to the manufacturer's protocol (Promega, Madison, Wis.) or using a Coulter counter. Briefly, a MTT assay is an analytical technique that uses the dye dimethylthiazolyl-diphenyltetrazolium (MTT) which turns from yellow to brownish-purple as it is reduced in the mitochondria of living cells. The assay is useful in calorimetric quantitation of cell viability and proliferation. In contrast, cell differentiation was evaluated using Wright and Non-Specific Esterase (NSE) staining of cells collected on microscope slides by cytospin as previously described (Magrinat, G. et al. (1992) Blood 80: 1880-1884). Apoptosis was assayed by flow cytometry and by determining DNA fragmentation using agarose gel electrophoresis as previously described (Shami, P. J. et al. (1998) Leukemia 12: 1461-1466). For the flow cytometry assay, we used the propidium iodide staining method of Nicoletti et al. (Nicoletti, I. et al. (1991) J. Immunol. Methods 139: 271-279).
HL-60 cells were treated with JS-K at a concentration of 0.5 uM for 3-5 days. […] JS-K appears to induce cell differentiation.

[2] = target: T1, hGSTA1-1 (Homo sapiens, UniProt P08263); assay: GST-catalysed GSH conjugation of JS-K and NO release; type: biochemical
T1 sequence (P08263 1-222): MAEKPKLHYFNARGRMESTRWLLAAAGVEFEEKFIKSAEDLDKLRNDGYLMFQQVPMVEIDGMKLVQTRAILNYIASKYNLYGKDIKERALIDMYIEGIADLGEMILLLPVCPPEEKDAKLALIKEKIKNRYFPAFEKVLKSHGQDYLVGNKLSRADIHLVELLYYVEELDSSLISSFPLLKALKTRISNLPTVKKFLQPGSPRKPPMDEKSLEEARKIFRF
Method: (§1) Determination of Specific Activity of Human GSTs Toward JS-K. Purified preparations of recombinant hGSTA1-1, hGSTM1-1 and hGSTP1-1 were obtained from Panvera (Madison, Wis.). The activity of human GST toward CDNB was determined, as described by Habig et al. (Habig, W. H. et al. (1974) J. Biol. Chem. 249: 7130-7139), prior to activity measurements with JS-K to ensure that the enzyme preparations were catalytically active. For activity measurement toward JS-K, the reaction mixture in a final volume of 1 ml contained 100 mM potassium phosphate buffer (pH 6.5), 1 mM GSH, 0.045 mM JS-K, and an appropriate amount of human GST isoenzyme protein. The reaction was started by the addition of JS-K, and the rate of reaction was monitored by measuring decrease in absorbance of JS-K at 298 nm due to its utilization during reaction with GSH. The specific activity toward JS-K was calculated using an extinction coefficient of 18 mM^−1 cm^−1 at 298 nm.
(§2) Measurement of NO Release. Chemiluminescence detection and quantification of NO evolving from the reactions of JS-K were conducted using an NO-specific Thermal Energy Analyzer (Model 502A, Thermedics, Analytical Instrument Division, Waltham, Mass.) essentially as previously described (Keefer, L. K. et al. (1996) Methods Enzymol. 268: 281-293). Briefly, pH 7.4 phosphate buffer containing 1 mM GSH was sparged with inert gas until a steady detector response was established. Where indicated, GSTs were added to a final concentration of 1.67 ug of enzyme/ml. The NO release profile was followed at 37° C. for 45 min after injecting JS-K at a final concentration of 133 nM to start the reaction. The resulting curve was integrated to quantify the amount of NO released/mole of compound.

[3] = target: T2, hGSTP1-1 (Homo sapiens, UniProt P09211); assay: as above; type: biochemical
T2 construct: purchased Panvera (Madison, Wis.)
T2 sequence (P09211 2-210 limits assumed): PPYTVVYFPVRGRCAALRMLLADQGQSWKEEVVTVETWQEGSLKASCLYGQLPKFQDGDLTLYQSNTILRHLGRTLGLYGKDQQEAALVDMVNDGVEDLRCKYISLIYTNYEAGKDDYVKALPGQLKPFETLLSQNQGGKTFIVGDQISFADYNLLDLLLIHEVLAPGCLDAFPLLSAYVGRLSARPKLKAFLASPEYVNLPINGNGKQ
Method: as §1, §2

[4] = target: T3, hGSTM1-1 (Homo sapiens, UniProt P09488); assay: as above; type: biochemical
T3 construct: purchased Panvera (Madison, Wis.)
T3 sequence (P09488 2-218): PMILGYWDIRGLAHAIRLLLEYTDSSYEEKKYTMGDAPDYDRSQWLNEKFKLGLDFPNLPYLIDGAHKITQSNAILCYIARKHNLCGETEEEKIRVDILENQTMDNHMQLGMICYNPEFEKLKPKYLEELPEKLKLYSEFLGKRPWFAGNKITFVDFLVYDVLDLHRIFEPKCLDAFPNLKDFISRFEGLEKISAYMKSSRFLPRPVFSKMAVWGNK
Method: as §1, §2

[5] = tested on: PPC-1 cells; assay: PPC-1 prostate cancer cell growth in vitro; type: cell-based
Method: Cell Lines and Culture Conditions. HL-60, DLD1, and U937 cells were obtained from ATCC (Rockville, Md.). Meth A cells were from Dr. Wolfram Samlowski (University of Utah, Salt Lake City, Utah). The PPC-1 cell line was provided by Dr. Graeme Bolger (University of Alabama, Birmingham, Ala.). For the cell growth and apoptosis experiments, cells were cultured at a density of 150,000 cells/ml in RPMI-1640 with 10% fetal bovine serum at 37° C. in a 5% CO2 humidified atmosphere. Agents were added at the indicated concentrations 24 h after culture initiation. At the indicated time intervals, cells were harvested and washed twice in phosphate buffered saline (PBS) prior to processing for analysis of growth, differentiation, and apoptosis.
Cell Growth, Differentiation and Apoptosis Assays. The number of viable cells was determined using the MTT assay according to the manufacturer's protocol (Promega, Madison, Wis.) or using a Coulter counter. […] The assay is useful in calorimetric quantitation of cell viability and proliferation. In contrast, cell differentiation was evaluated using Wright and Non-Specific Esterase (NSE) staining of cells collected on microscope slides by cytospin as previously described (Magrinat, G. et al. (1992) Blood 80: 1880-1884). […]

Compound: CCOC(=O)N1CCN(/[N+]([O-])=N/Oc2ccc([N+](=O)[O-])cc2[N+](=O)[O-])CC1 [JS-K, O^2-(2,4-dinitrophenyl) 1-[(4-ethoxycarbonyl)piperazin-1-yl]diazen-1-ium-1,2-diolate]
- morphology by Wright stain [1]: morphologic changes consistent with a monocytic phenotype
- percentage of HL-60 cells expressing NSE ([1]; from 1): 40%
- catalysis of JS-K conjugation [2]: much superior to hGSTP1-1
- catalysis of NO release from JS-K with GSH ([3]; hGSTP1-1): only weakly
- activity for GSH conjugation of JS-K ([3]; recombinant hGSTP1-1): much less active than hGSTA1-1 or hGSTM1-1
- effect of JS-K exposure on enzyme's ability to catalyze CDNB's conjugation with GSH ([3]; up to 80 uM JS-K): unfettered ability
- catalysis of JS-K conjugation [4]: much superior to hGSTP1-1
- cell growth inhibition ([5]; 1, 2, 3, 4 and 5 μM, 3 days): potent inhibitor of prostate cancer growth
- IC50 relative to leukemia lines ([5]; PPC-1): an order of magnitude greater than those for the two leukemia lines
